Data published in US20240150377A1, “MODULATORS OF CYSTIC FIBROSIS TRANSMEMBRANE CONDUCTANCE REGULATOR” (VERTEX PHARMACEUTICALS INCORPORATED, priority 2020, published 2024).
Read-outs that look alike come from different tables or passages of the source. Values belong to the molecule of their own block, whether it stands above or below them.

Molecular target: T1, CFTR (Homo sapiens, UniProt P13569, DEL508-508)
T1 construct: endogenous in cells; host or cells: primary human bronchial epithelial cells from CF subjects (F508del/MF-HBE), differentiated at air-liquid interface
T1 sequence (P13569 with tags, fused parts or gaps DEL508-508): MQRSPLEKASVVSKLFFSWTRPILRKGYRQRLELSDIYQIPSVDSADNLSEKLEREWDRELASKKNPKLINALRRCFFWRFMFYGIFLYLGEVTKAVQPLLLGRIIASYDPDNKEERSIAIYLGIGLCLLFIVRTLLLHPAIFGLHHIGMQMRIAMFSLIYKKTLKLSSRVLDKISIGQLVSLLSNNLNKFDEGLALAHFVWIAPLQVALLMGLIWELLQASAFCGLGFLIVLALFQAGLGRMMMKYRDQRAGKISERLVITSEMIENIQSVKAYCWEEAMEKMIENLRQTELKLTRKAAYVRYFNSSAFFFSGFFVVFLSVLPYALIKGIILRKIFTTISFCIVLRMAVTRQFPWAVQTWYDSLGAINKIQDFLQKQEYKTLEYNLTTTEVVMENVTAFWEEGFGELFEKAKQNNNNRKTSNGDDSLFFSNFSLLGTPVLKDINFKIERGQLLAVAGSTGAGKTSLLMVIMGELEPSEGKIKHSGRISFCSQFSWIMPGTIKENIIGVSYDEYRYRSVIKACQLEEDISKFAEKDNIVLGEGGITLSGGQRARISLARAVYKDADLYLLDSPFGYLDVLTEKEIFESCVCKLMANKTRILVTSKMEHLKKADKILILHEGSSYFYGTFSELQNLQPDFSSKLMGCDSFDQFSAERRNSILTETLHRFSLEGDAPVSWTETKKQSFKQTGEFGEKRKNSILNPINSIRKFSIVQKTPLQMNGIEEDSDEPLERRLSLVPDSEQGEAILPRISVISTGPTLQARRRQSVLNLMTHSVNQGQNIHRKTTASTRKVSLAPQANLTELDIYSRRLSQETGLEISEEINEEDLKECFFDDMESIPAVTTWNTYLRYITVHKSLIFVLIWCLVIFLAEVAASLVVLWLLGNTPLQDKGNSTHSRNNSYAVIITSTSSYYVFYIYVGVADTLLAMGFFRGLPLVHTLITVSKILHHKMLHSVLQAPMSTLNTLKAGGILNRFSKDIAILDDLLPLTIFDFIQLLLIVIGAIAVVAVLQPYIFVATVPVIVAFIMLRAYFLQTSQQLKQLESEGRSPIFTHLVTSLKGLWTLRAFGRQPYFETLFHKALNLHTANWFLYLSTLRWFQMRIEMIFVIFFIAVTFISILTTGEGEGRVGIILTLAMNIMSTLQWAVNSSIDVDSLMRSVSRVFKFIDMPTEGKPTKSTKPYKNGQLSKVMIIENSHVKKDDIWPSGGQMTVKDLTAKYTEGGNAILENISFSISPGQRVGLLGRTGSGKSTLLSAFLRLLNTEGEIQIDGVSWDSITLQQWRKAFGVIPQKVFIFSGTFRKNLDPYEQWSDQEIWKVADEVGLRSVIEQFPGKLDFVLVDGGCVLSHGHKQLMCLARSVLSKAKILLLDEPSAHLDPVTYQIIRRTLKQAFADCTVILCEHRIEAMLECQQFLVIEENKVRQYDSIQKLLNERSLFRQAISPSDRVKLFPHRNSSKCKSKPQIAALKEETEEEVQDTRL
Experiment: HBE assay: Ussing chamber assay of CFTR-mediated short-circuit currents
Assay type: cell-based
Method in brief: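 CFTR-mediated Isc (μA/cm²) equals the peak response to apical 20 μM forskolin minus the residual after a 20 μM each BPO/GlyH-101/CFTR inhibitor 172 cocktail, recorded in Ussing chambers at Vhold 0 mV, 37 °C, pH 7.4, with 30 μM apical amiloride. Cells were F508del/MF HBE cultures preincubated 18-24 h with corrector (concentration range or 10 μM) plus 1 μM ivacaftor in 20% human serum.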

[1] = HBE assay, read-out: HBE Max activity (%)
[2] = HBE assay, 10 μM, read-out: HBE Activity at 10 μM (%)
[3] = Table 13, read-out: HBE Max Activity (%)
[4] = Table 12, at 10 μM, read-out: HBE Activity at 10 μM (%)
[5] = Table 12, read-out: HBE Max Activity (%)
[6] = Table 10, read-out: HBE Max activity (%)
[7] = Table 11, read-out: HBE Max Activity (%)
[8] = Table 13, at 10 μM, read-out: HBE Activity at 10 μM (%)
[9] = Table 10, at 10 μM, read-out: HBE activity at 10 (μM) (%)

Structure (SMILES): CC[C@H](C)Oc1cnc(CN2C(=O)c3cccc(c3)S(=O)(=O)Nc3nc(cc(-c4c(C)cccc4C)n3)OC[C@H]2CC2CC2)nc1 [Compound 1453]
EC50 (HBE assay, read-out: HBE EC50): 1 to 3 µM
Emax [1]: > 60%

Structure (SMILES): Cc1cccc(C)c1-c1cc2nc(n1)NS(=O)(=O)c1cccc(n1)C(=O)N(Cc1ncc(OC(C)C)cn1)[C@H](CC(C)(C)C)CO2 [Compound 1128]
EC50 (Table 13, read-out: HBE EC50): < 1 µM
Emax [3]: > 60%

Structure (SMILES): Cc1ccnc(CNC(=O)CN2C(=O)c3cccc(c3)S(=O)(=O)Nc3nc(cc(-c4c(C)cccc4C)n3)OC[C@H]2CC(C)(C)C)c1 [Compound 218]
activation at 10 µM [4]: > 600%

Structure (SMILES): Cc1cccc(C)c1-c1cc2nc(n1)NS(=O)(=O)c1cccc(c1)C(=O)N(Cc1ncc(N3CCC[C@H]3C)cn1)[C@H](CC(C)(C)C)CO2 [Compound 572]
EC50 (Table 12, read-out: HBE EC50): < 1 µM
Emax [5]: > 60%

Structure (SMILES): Cc1cccc(C)c1-c1cc2nc(n1)NS(=O)(=O)c1cccc(c1)C(=O)N(Cc1cccc(N3CCC34CCC(C)(C)C4)n1)[C@H](CC(C)(C)C)CO2 (stereo partly drawn) [Compound 531]
EC50 (Table 13, read-out: HBE EC50): < 1 µM
Emax [3]: > 60%

Structure (SMILES): Cc1cccc(C)c1-c1cc2nc(n1)NS(=O)(=O)c1cccc(c1)C(=O)N(Cc1ncc(N3CC4CCC3C4)cn1)[C@H](CC(C)(C)C)CO2 (stereo partly drawn) [Compound 874]
EC50 (Table 12, read-out: HBE EC50): < 1 µM
Emax [5]: > 60%

Structure (SMILES): Cc1cccc(C)c1-c1cc2nc(n1)NS(=O)(=O)c1cccc(c1)C(=O)N(CC1CCC(C)(C)O1)[C@H](CC(C)(C)C)CO2 (single isomer, unassigned) [Compound 34]
EC50 (Table 11, read-out: HBE EC50): < 1 µM
Emax [7]: > 60%

Structure (SMILES): Cc1cccc(C)c1-c1cc2nc(n1)NS(=O)(=O)c1cccc(c1)C(=O)N(CC(=O)N[C@H]1CC[C@H](C)CC1)[C@H](CC(C)(C)C)CO2 [Compound 194]
activation at 10 µM [8]: > 600%

Structure (SMILES): Cc1cccc(C)c1-c1cc2nc(n1)NS(=O)(=O)c1cccc(c1)C(=O)N(Cc1ncc(N3CCC(F)(F)C3)cn1)[C@H](CC1CC1)CO2 [Compound 1469]
EC50 (HBE assay, read-out: HBE EC50): < 1 µM
Emax [1]: > 60%

Structure (SMILES): Cc1cccc(C)c1-c1cc2nc(n1)NS(=O)(=O)c1cccc(c1)C(=O)N(CC1CCCOC1)[C@H](CC(C)(C)C)CO2 (stereo partly drawn) [Compound 819]
EC50 (Table 11, read-out: HBE EC50): < 1 µM

Structure (SMILES): CC(C)c1cccc(C(C)C)c1-c1cc2nc(n1)NS(=O)(=O)c1cccc(c1)C(=O)N(Cc1ccc(N3CCCCC3)cn1)[C@H](CC(C)(C)C)CO2 [Compound 829]
activation at 10 µM [9]: > 60%

Structure (SMILES): Cc1cccc(C)c1-c1cc2nc(n1)NS(=O)(=O)c1cccc(c1)C(=O)N(Cc1cccc(-c3c[nH]nc3C)c1)[C@H](CC(C)(C)C)CO2 [Compound 312]
activation at 10 µM [9]: > 60%

Structure (SMILES): Cc1cccc(C)c1-c1cc2nc(n1)NS(=O)(=O)c1cccc(c1)C(=O)N(Cc1nccc(N(C)C3CCOCC3)n1)[C@H](CC(C)(C)C)CO2 [Compound 616]
EC50 (Table 11, read-out: HBE EC50): < 1 µM
Emax [7]: > 60%

Structure (SMILES): Cc1cccc(C)c1-c1cc2nc(n1)NS(=O)(=O)c1cccc(c1)C(=O)N(Cc1cncc(N3CCC[C@H]3C3CC3)n1)[C@H](CC1CC1)CO2 [Compound 1502]
EC50 (HBE EC50 (μM), HBE assay): < 1 µM
activation at 10 µM (read-out: HBE Activity at 10 μM (%)): > 60%
Emax (read-out: HBE Max activity (%)): > 60%

Structure (SMILES): Cc1cccc(C)c1-c1cc2nc(n1)NS(=O)(=O)c1cccc(c1)C(=O)N(Cc1ncc(N3CCC(C)(C)C3)cn1)[C@H](C(C)C)CO2 [Compound 695]
activation at 10 µM [4]: > 600%
EC50 (Table 12, read-out: HBE EC50): < 1 µM
Emax [5]: < 30%

Structure (SMILES): Cc1cccc(C)c1-c1cc2nc(n1)NS(=O)(=O)c1cccc(c1)C(=O)N(CC(=O)N(C)CC1CCCCO1)[C@H](CC(C)(C)C)CO2 (stereo partly drawn) [Compound 225]
activation at 10 µM [8]: > 600%

Structure (SMILES): Cc1cccc(C)c1-c1cc2nc(n1)NS(=O)(=O)c1cccc(c1)C(=O)N(Cc1cccc(N3CC(=O)NC3=O)c1)[C@H](CC(C)(C)C)CO2 [Compound 148, 1-[3-[[(11R)-6-(2,6-Dimethylphenyl)-11-(2,2-dimethylpropyl)-2,2,13-trioxo-9-oxa-2λ^6-thia-3,5,12,19-tetrazatricyclo[12.3.1.14,8]nonadeca-1(18),4(19),5,7,14,16-hexaen-12-yl]methyl]phenyl]imidazolidine-2,4-dione]
EC50 (Table 10, read-out: HBE EC50): 1 to 3 µM
Emax [6]: > 60%

Structure (SMILES): Cc1cccc(C)c1-c1cc2nc(n1)NS(=O)(=O)c1cccc(c1)C(=O)N([C@@H](C)c1ccc(-c3cn[nH]c3)cc1)[C@H](CC(C)(C)C)CO2 [Compound 287]
Emax [6]: > 60%

Structure (SMILES): Cc1cccc(C)c1-c1cc2nc(n1)NS(=O)(=O)c1cccc(c1)C(=O)N(Cc1ncc(N3C4CCC3COC4)cn1)[C@H](CC(C)(C)C)CO2 [Compound 563]
EC50 (HBE EC50 (μM), Table 12): < 1 µM
Emax [5]: > 60%

Structure (SMILES): Cc1cccc(C)c1-c1cc2nc(n1)NS(=O)(=O)c1cccc(c1)C(=O)N(CC(=O)N1CCCCC1)[C@H](CC(C)(C)C)CO2 [Compound 200]
activation at 10 µM [8]: > 600%

Structure (SMILES): Cc1cccc(C)c1-c1cc2nc(n1)NS(=O)(=O)c1cccc(c1)C(=O)N(Cc1ncc(C3CC4(COC4)C3)cn1)[C@H](CC(C)(C)C)CO2 [Compound 161]
EC50 (Table 13, read-out: HBE EC50): < 1 µM
Emax [3]: > 60%

Structure (SMILES): Cc1cccc(C)c1-c1cc2nc(n1)NS(=O)(=O)c1cccc(c1)C(=O)N(Cc1ncc(Br)cc1C(F)(F)F)[C@H](CC(C)(C)C)CO2 [Compound 1119]
activation at 10 µM [8]: > 600%

Structure (SMILES): Cc1cccc(C)c1-c1cc2nc(n1)NS(=O)(=O)c1cccc(c1)C(=O)N(Cc1cccc(Cc3nccs3)c1)[C@H](CC(C)(C)C)CO2 [Compound 295]
EC50 (Table 10, read-out: HBE EC50): < 1 µM
Emax [6]: > 60%

Structure (SMILES): Cc1cccc(C)c1-c1cc2nc(n1)NS(=O)(=O)c1cccc(n1)C(=O)N(Cc1cccc(N(C)C3CC4(CC4)C3)n1)[C@H](CC(C)(C)C)CO2 [Compound 1143]
EC50 (Table 13, read-out: HBE EC50): < 1 µM
Emax [3]: > 60%

Continued, values first:

activation at 10 µM [2]: > 60%
Structure (SMILES): Cc1cccc(C)c1-c1cc2nc(n1)NS(=O)(=O)c1cccc(c1)C(=O)N(Cc1ncc(OC(C)C)cn1)[C@H](CC(C)(C)F)CO2 [Compound 1308, (11R)-6-(2,6-Dimethylphenyl)-11-(2-fluoro-2-methyl-propyl)-12-[(5-isopropoxypyrimidin-2-yl)methyl]-2,2-dioxo-9-oxa-2λ^6-thia-3,5,12,19-tetrazatricyclo[12.3.1.14,8]nonadeca-1(18),4(19),5,7,14,16-hexaen-13-one]

activation at 10 µM [2]: > 60%
Structure (SMILES): CC(=O)Nc1cnc(CN2C(=O)c3cccc(c3)S(=O)(=O)Nc3nc(cc(-c4c(C)cccc4C)n3)OC[C@H]2CC(C)(C)C)nc1 [Compound 1513]

Emax [6]: > 60%
Structure (SMILES): Cc1cccc(C)c1-c1cc2nc(n1)NS(=O)(=O)c1cccc(c1)C(=O)N(Cc1cccc(OCC(C)(C)C)n1)[C@H](CC(C)(C)C)CO2 [Compound 469]

EC50 (HBE assay, read-out: HBE EC50): < 1 µM
Emax [1]: > 60%
Structure (SMILES): Cc1cccc(C)c1-c1cc2nc(n1)NS(=O)(=O)c1cccc(c1)C(=O)N(Cc1ncc(O[C@H](C)C(C)C)cn1)[C@H](CC(C)(C)C)CO2 [Compound 1377]

EC50 (Table 11, read-out: HBE EC50): < 1 µM
Emax [7]: > 60%
Structure (SMILES): Cc1cccc(C)c1-c1cc2nc(n1)NS(=O)(=O)c1cccc(c1)C(=O)N(Cc1ncccc1OC(C)C)[C@H](CC(C)(C)C)CO2 [Compound 741]

EC50 (Table 10, read-out: HBE EC50): < 1 µM
Emax [6]: > 60%
Structure (SMILES): COc1cccnc1CN1C(=O)c2cccc(c2)S(=O)(=O)Nc2nc(cc(-c3c(C)cccc3C)n2)OC[C@H]1CC(C)(C)C [Compound 382]

EC50 (Table 10, read-out: HBE EC50): < 1 µM
Emax [6]: > 60%
Structure (SMILES): Cc1ccc(CN2C(=O)c3cccc(c3)S(=O)(=O)Nc3nc(cc(-c4c(C)cccc4C)n3)OC[C@H]2CC(C)(C)C)nc1 [Compound 500]

activation at 10 µM [4]: > 600%
Structure (SMILES): CC(C)=C(C)c1ccnc(CN2C(=O)c3cccc(c3)S(=O)(=O)Nc3nc(cc(-c4c(C)cccc4C)n3)OC[C@H]2CC(C)(C)C)n1 [Compound 555]

EC50 (HBE assay, read-out: HBE EC50): < 1 µM
Emax [1]: > 60%
Structure (SMILES): Cc1cccc(C)c1-c1cc2nc(n1)NS(=O)(=O)c1cccc(c1)C(=O)N(Cc1cccc(N(C)C3CCOC3)n1)[C@H](CC(C)(C)C)CO2 (stereo partly drawn) [Compound 1347]

EC50 (Table 12, read-out: HBE EC50): < 1 µM
Emax [5]: > 60%
Structure (SMILES): CCC(C)C(CO)N(C)c1cncc(CN2C(=O)c3cccc(c3)S(=O)(=O)Nc3nc(cc(-c4c(C)cccc4C)n3)OC[C@H]2CC(C)(C)C)n1 (stereo partly drawn) [Compound 260]

EC50 (Table 11, read-out: HBE EC50): 3 to 30 µM
Emax [7]: > 60%
Structure (SMILES): Cc1cccc(C)c1-c1cc2nc(n1)NS(=O)(=O)c1cccc(c1)C(=O)N(Cc1cnc(C3CCCC3)cn1)[C@H](CC(C)(C)C)CO2 [Compound 890]

EC50 (Table 11, read-out: HBE EC50): < 1 µM
Emax [7]: > 60%
Structure (SMILES): CCNc1cccc(CN2C(=O)c3cccc(c3)S(=O)(=O)Nc3nc(cc(-c4c(C)cccc4C)n3)OC[C@H]2CC(C)(C)C)n1 [Compound 738]

EC50 (HBE assay, read-out: HBE EC50): < 1 µM
Emax [1]: > 60%
Structure (SMILES): Cc1cccc(C)c1-c1cc2nc(n1)NS(=O)(=O)c1cccc(c1)C(=O)N(Cc1ncc(OC(C)C)cc1C#N)[C@H](CC(C)(C)C)CO2 [Compound 1351]

EC50 (Table 11, read-out: HBE EC50): < 1 µM
Emax [7]: > 60%
Structure (SMILES): Cc1cccc(C)c1-c1cc2nc(n1)NS(=O)(=O)c1cccc(c1)C(=O)N(Cc1nccc(C(C)(C)O)n1)[C@H](CC(C)(C)C)CO2 [Compound 813]

EC50 (Table 11, read-out: HBE EC50): 1 to 3 µM
Emax [7]: > 60%
Structure (SMILES): Cc1cccc(C)c1-c1cc2nc(n1)NS(=O)(=O)c1cccc(c1)C(=O)N(Cc1ncc(C3CC3)cn1)[C@H](CC(C)(C)C)CO2 [Compound 642]

activation at 10 µM [4]: < 30%
EC50 (Table 12, read-out: HBE EC50): < 1 µM
Emax [5]: > 60%
Structure (SMILES): Cc1cccc(C)c1-c1cc2nc(n1)NS(=O)(=O)c1cccc(c1)C(=O)N(Cc1nc(C(C)C)c[nH]1)[C@H](CC(C)(C)C)CO2 [Compound 264]

EC50 (HBE assay, read-out: HBE EC50): < 1 µM
Emax [1]: > 60%
Structure (SMILES): COCCN(c1cccc(CN2C(=O)c3cccc(c3)S(=O)(=O)Nc3nc(cc(-c4c(C)cccc4C)n3)OC[C@H]2CC(C)(C)C)n1)C1CC2(CC2)C1 [Compound 1393]
